{"source": "patent US7358233B2", "about": "“Tetronic acid derivative” (Toudai TLO, Ltd, priority 2001, dated 2008)", "key": {"HT-29 cells [1]": {"tested_on": "HT-29 cells", "assay": "Combined use of VST and cisplatin, colony-forming ability of HT-29 cells", "format": "cell-based", "description": "Enhancement of endoplasmic reticulum stress response promotes survival of cells under undernutritive conditions, and at the same time allows cells to acquire resistance to antitumor agents. Therefore, the inventors intended to examine the effect of VST on known antitumor agents. […] Therefore, the combined effect with other pharmaceutical agents could not be duly examined. Thus, cisplatin generally used for solid cancer treatment was used to examine the combined effect, due to its activity on cancer cells that is maintained even under low glucose conditions. Specifically, HT-29 cells were cultured by the above-mentioned method, pretreated for 30 min with VST, and then cultured for 18 hours. The cells were then treated for 4 hours with each concentration of cisplatin, and a week later their colony-forming ability was examined."}, "HT-29 cells [2]": {"tested_on": "HT-29 cells", "assay": "Antitumor effect against HT-29 cells transplanted into nude mice", "format": "in vivo", "protocol": "The antitumor effect of VST at the animal level was examined. Specifically, HT-29 cells were transplanted into nude mice and tumor was grown to 100 mm^3. Subsequently, each concentration of VST was administered through the tail vein, progress of cancer was followed each day thereafter, and the tumor was enucleated to compare its size. […] Furthermore, the combined effect with CDDP (cisplatin) was examined."}, "GRP78 promoter": {"tested_on": "GRP78 promoter", "assay": "GRP78 promoter luciferase reporter analysis in HeLa78C6 cells, with tunicamycin-induced endoplasmic reticulum stress", "format": "cell-based, human", "protocol": "Screening for natural substances that may regulate the expression of GRP78 was performed. Specifically, herbal medicines, and respective metabolites of fungus and actinomyces were prepared as test samples. A screening system was prepared as follows. A GRP78 promoter region (−132 to +7) comprising three ERSE was inserted into the KpnI-BglII site of the multicloning site of pGL3-basic vector (Promega), and a luciferase gene was linked as a reporter gene downstream of the GRP78 promoter to construct a vector. […]\nThe cell suspension (100 μL) was dispensed into each well of a 96-well plate and incubated at 37° C. in 5% CO2 for 6 hours. […] Then, luciferase activity of the cells was measured using a luciferase measurement kit (Luciferase Assay System: Promega, cat# E1501) following the instruction attached to the kit.\nThe main culture was separated into culture supernatant and mycelial cake by centrifugation. Similar to Example 1, the activities to suppress GRP78 expression were measured by the reporter analysis method for the culture supernatant and mycelial cake product that was obtained by homogenizing the mycelial cake, respectively. […] Then, luciferase activity of the cells was measured using a luciferase measurement kit.\nUsing pure VST purified in Example 3, its activity to suppress GRP78 promoter expression was quantitated. […]"}, "[3]": {"tested_on": "HeLa cells and various other culture cells", "assay": "Survival rate of a variety of cells, MTT method (all cell lines together)", "format": "cell-based", "description": "In this Example, HeLa cells and various other culture cells were used to measure the survival rate during the above-mentioned reporter analysis and VST addition. Specifically, in addition to HeLa cells (human cervical cancer cells), MCF-7 (human breast cancer cells), PC12NH (rat pheochromocytoma), MDA-MB-231 (human breast cancer cells), TIG-3 (human normal fibroblast cells), HeLa 786C cells (human cervical cancer cells), Saos-2 (telomerase and p53-deficient human cancer cells) and SUSM-1 (telomerase-deficient human cancer cells) were used.\nThe direct growth suppression activity of VST on these cells was measured using the MTT method. 100 μL cell suspension (5×10^4/mL) of each of the above-mentioned cells was dispensed into each well of a 96-well plate and cultured for 6 hours at 37° C. After culturing, VST solution diluted stepwise as in Example 4 was added thereto and cultured for another 24 hours. After culturing for 24 hours, 0.05 g/mL MTT solution (10 μL) was added to each well and incubation was performed at 37° C. for 4 hours. The medium was then removed, DMSO (100 μL) was added, and the absorbance at 530 nm was measured (FIG. 8)."}, "HT1080 cells": {"tested_on": "HT1080 cells", "assay": "Apoptosis (sub-G1) of HT1080 cells by propidium iodide FACS analysis", "format": "cell-based", "settings": "for sub-G1 stage induction (apoptosis): 3 μM VST", "protocol": "HT1080 cells were pretreated for 30 min with 3 μM of VST, after fixing the cells the nuclei were stained with propidium iodide for FACS analysis. […] In contrast, only a very limited number of HT1080 cells underwent apoptosis with glucose starvation treatment alone."}}}
{"smiles": "CC/C1=C\\C(CO)CC(C)C(OC2CC(O)C(OC3CC(OC)C(OC4CC(O)C(O)C(C)O4)C(C)O3)C(C)O2)C(C)CCCC2(C)C=C(C)C(C)CC23OC(=O)C(=C3O)C(=O)C2(CC)C1C(C)=CC1C(O)CC(=O)C(C)C12", "note": "(stereo not drawn) [VST, versipelostatin]", "values": [{"measurement": "effect of the combined use of VST with cisplatin on colony-forming ability", "setting": "HT-29 cells [1]; VST 300 nM and 500 nM, then cisplatin 4 hours (FIG. 14)", "value": "further enhance the effect of cisplatin"}, {"measurement": "activity on colony-forming ability under glucose starvation condition", "setting": "HT-29 cells [1]; glucose starvation condition", "value": "enhance the activity"}, {"measurement": "antitumor effect (tumor size)", "setting": "HT-29 cells [2]; HT-29 tumor grown to 100 mm^3 in nude mice, VST through the tail vein (FIG. 15)", "value": "showed antitumor effect, although the effect was not as strong as cisplatin"}, {"measurement": "combined effect with CDDP (cisplatin)", "setting": "HT-29 cells [2]; HT-29 tumor in nude mice", "value": "no effect due to the combination could be confirmed"}, {"measurement": "suppression of the increase of luciferase activity (GRP78 promoter expression) due to tunicamycin", "setting": "GRP78 promoter; sample added 30 min before tunicamycin 2 μg/mL, 18 hours", "value": "suppressed in concordance with the increase in VST concentration"}, {"measurement": "luciferase expression from the GRP78 promoter, VST alone", "setting": "GRP78 promoter; without tunicamycin addition", "value": "did not affect the expression of luciferase"}, {"measurement": "degree of decrease of survival rate", "setting": "[3]; VST 100 μg/mL, many cell lines", "value": "≤ 50", "unit": "%"}, {"measurement": "survival rate", "setting": "[3]; VST approximately 10 μg/mL", "value": "slight decrease was observed in a few cell lines"}, {"measurement": "survival rate", "setting": "[3]; VST final concentration of 1 μg/mL, all cell lines", "value": "No decrease in the survival rate was observed"}, {"measurement": "sub-G1 stage induction (apoptosis)", "setting": "HT1080 cells; glucose starvation condition, after 48 hours", "value": "strong sub-G1 stage induction"}, {"measurement": "sub-G1 stage induction (apoptosis)", "setting": "HT1080 cells; in the presence of glucose", "value": "did not show any effect"}, {"measurement": "induction of apoptosis, sequential changes", "setting": "HT1080 cells; glucose starvation conditions (FIG. 13)", "value": "time-dependent manner"}]}
